# Measured values taken from ChEMBL document CHEMBL4813923, “Design, synthesis and biological evaluation of novel scaffold benzo[4,5]imidazo [1,2-a]pyrazin-1-amine: Towards adenosine A2A receptor (A2A AR) antagonist” (Eur J Med Chem, 2021).
# Target: Adenosine receptor A2a (Homo sapiens, UniProt P29274)
# Experiment: Displacement of [3H]-ZM241385 from human recombinant A2A receptor expressed in human HEK293 cell membrane preincubated for 5 mins and measured after 1.5 hrs by radioligand competition binding assay
# Type: cell membranes
# Chain of Adenosine receptor A2a (P29274 whole entry): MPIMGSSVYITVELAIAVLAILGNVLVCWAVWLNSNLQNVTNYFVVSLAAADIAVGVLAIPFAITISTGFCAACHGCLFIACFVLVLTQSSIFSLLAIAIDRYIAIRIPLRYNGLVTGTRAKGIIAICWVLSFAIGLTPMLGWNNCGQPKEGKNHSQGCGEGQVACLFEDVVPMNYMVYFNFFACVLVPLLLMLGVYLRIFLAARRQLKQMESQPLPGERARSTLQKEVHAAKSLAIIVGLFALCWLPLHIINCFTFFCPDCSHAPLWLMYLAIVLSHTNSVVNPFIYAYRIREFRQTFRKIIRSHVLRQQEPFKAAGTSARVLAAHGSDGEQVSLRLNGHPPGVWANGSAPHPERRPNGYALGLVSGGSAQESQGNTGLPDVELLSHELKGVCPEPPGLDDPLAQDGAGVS
row,IC50 [nM],SMILES
1,14.4,Cc1ccc(-c2cn3c(nc4ccccc43)c(N)n2)cc1
2,10.1,COc1cccc(-c2cn3c(nc4ccccc43)c(N)n2)c1
3,74.4,N#Cc1ccc(-c2cn3c(nc4ccccc43)c(N)n2)cc1
4,> 10000,Nc1nc(C2CCN(CC(=O)N3CCOCC3)CC2)cn2c1nc1ccccc12
5,83.1,COc1ccccc1-c1cn2c(nc3ccccc32)c(N)n1
6,114,Cc1c(-c2ccccc2)nc(N)c2nc3ccccc3n12
7,46.5,Nc1nc(-c2ccccc2)cn2c1nc1ccccc12
8,71.9,Nc1nc(-c2ccc([N+](=O)[O-])cc2)cn2c1nc1ccccc12
9,26.5,Nc1nc(-c2ccc(C(F)(F)F)cc2)cn2c1nc1ccccc12
10,149,Nc1nc(CO)cn2c1nc1ccccc12
11,48.6,CC(=O)Nc1cccc(-c2cn3c(nc4ccccc43)c(N)n2)c1
12,> 10000,Nc1nc(C2CCNCC2)cn2c1nc1ccccc12
13,35.4,Nc1nc(-c2ccc(Cl)cc2)cn2c1nc1ccccc12
14,38.4,Nc1nc(-c2ccc(Br)cc2)cn2c1nc1ccccc12
15,131,Nc1nc(-c2ccc(OC(F)(F)F)cc2)cn2c1nc1ccccc12
16,> 10000,COCCN1CCC(c2cn3c(nc4ccccc43)c(N)n2)CC1
17,32.6,Nc1nc(-c2ccco2)cn2c1nc1ccccc12
18,312,CC(=O)Nc1ccc(-c2cn3c(nc4ccccc43)c(N)n2)cc1
19,33,CC(C)(C)c1ccc(-c2cn3c(nc4ccccc43)c(N)n2)cc1
20,33.7,Nc1nc(-c2ccc(F)cc2F)cn2c1nc1ccccc12
21,51.2,COc1ccc(-c2cn3c(nc4ccccc43)c(N)n2)cc1
22,81.3,Nc1nc(-c2ccc(O)cc2)cn2c1nc1ccccc12

# Target: T1, Adenosine receptor A1 (Homo sapiens, UniProt P30542)
# T1 sequence (P30542 whole entry): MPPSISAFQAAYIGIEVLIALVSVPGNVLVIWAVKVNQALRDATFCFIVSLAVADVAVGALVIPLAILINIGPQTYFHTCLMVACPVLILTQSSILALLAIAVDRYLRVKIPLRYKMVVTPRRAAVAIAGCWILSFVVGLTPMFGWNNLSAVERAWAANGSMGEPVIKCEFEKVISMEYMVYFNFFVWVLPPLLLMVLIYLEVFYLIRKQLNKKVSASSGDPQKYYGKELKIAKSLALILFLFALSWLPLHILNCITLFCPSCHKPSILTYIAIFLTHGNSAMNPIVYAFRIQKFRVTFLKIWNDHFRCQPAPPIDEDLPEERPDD
# Experiment: Displacement of [3H]DPCPX from human adenosine A1 receptor expressed in CHO-K1 cell membrane preincubated for 5 mins followed measured after 50 mins by radioligand competition binding assay
# Type: cell membranes
row,IC50 [nM],SMILES
1,63.9,Cc1ccc(-c2cn3c(nc4ccccc43)c(N)n2)cc1
2,95.8,COc1cccc(-c2cn3c(nc4ccccc43)c(N)n2)c1
3,733,Nc1nc(Cc2ccccc2)cn2c1nc1ccccc12
4,92.1,Nc1nc(-c2cccc(Br)c2)cn2c1nc1ccccc12
5,17,CC(=O)Nc1cccc(-c2cn3c(nc4ccccc43)c(N)n2)c1
6,460,COc1cccc(-c2cn3c(nc4cc(F)c(F)cc43)c(N)n2)c1
7,6.3,Nc1nc(-c2ccco2)cn2c1nc1ccccc12
8,4.4,Nc1nc(-c2ccc(F)cc2F)cn2c1nc1ccccc12
